SMILES strings stand for the structures.

The first experiment has as its target T1, Androgen receptor (AR) (Homo sapiens, UniProt P10275).
T1 construct: endogenous in cells; host or cells: VCaP
T1 sequence (P10275 1-920): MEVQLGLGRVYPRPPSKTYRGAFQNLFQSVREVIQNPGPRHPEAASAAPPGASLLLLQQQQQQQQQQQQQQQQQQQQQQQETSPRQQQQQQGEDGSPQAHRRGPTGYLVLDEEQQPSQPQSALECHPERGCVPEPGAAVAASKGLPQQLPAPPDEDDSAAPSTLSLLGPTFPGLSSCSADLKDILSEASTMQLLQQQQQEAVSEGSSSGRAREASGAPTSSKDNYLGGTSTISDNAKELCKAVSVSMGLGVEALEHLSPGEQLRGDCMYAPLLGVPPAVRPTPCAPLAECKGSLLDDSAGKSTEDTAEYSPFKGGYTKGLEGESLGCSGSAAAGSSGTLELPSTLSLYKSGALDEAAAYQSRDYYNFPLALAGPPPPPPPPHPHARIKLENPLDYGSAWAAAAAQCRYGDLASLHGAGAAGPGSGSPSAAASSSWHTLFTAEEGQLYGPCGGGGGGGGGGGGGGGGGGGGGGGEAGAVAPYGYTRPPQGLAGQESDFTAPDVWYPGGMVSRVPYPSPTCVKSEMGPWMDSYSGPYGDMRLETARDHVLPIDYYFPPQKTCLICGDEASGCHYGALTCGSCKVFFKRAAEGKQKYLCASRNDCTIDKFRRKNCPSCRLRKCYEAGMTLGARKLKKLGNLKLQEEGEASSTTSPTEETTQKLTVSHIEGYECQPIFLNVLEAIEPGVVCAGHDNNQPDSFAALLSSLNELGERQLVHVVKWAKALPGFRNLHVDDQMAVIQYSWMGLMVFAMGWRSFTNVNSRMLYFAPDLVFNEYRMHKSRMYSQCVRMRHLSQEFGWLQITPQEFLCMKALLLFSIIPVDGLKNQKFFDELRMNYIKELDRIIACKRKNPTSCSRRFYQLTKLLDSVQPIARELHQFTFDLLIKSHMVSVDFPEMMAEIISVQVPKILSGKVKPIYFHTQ
Nature of the experiment: Cellular assay of androgen receptor (AR) degradation (VCaP cells, ELISA). The conditions noted are these: 4 h; androgen receptor, VCaP cells, PROTAC concentration 1 μM, relative to DMSO control; read-out: Target protein degradation range. The experiment is classed as cell-based. The method, then: Protocol of the Cellular Assay of Androgen Receptor (AR) Degradation (VCaP Cells, ELISA).
For detection Cell Signaling PathScan Sandwich Elisa Catalog #12850 Lot 11 was used. VCaP cells were cultured in ATCC DMEM+ATCC FBS and plated 40,000/well 100 μl/well in RPMI P/S with 5% CSS Omega (bovine) serum into a 96 well plate. The cells were grown for a minimum of 3 days, dosed with compounds in 0.1% DMSO (diluted with 5% CSS) and incubated with aspiration for 4 hours. 100 μl of 1× Cell Signaling lysis buffer #9803 (36 ml dH2O+4 ml Cell Signaling lysis buffer) was added. The incubation was placed on cold room shaker for 10 min at speed 8-9. 5 μl to 100 μl of Diluent was transferred to Elisa plate (0.15 ug/ml-0.075 ug/ml) and stored at 4 C overnight on cold room shaker speed 5 (gentle swirl) and then shaken next morning at 37° C. for 30 min. The preparation was washed 4×200 μl with Elisa wash buffer and aspirated with eight-channel aspirator. 100 μl/well of AR detection Ab was added after which the preparation was covered and shaken at 37° C. for 1 hr. 100 ul TMB was added, and the mixture was shaken for 5 min while under observation. When TMB turned light blue, 100 ul of Stop solution was added, and the mixture was shaken and read at 450 nm. Also read at 562 for background subtraction.
`CN[C@@H](C)C(=O)N[C@H](C(=O)N1CCC[C@H]1C(=O)N[C@H]1c2ccccc2C[C@H]1OCCOCCOc1ccc(C(=O)N[C@H]2C(C)(C)[C@H](Oc3ccc(C#N)c(Cl)c3)C2(C)C)cc1)C(C)(C)C` [Example 38, 1-[3,3-dimethyl-2-[(2S)-2-(methylamino)propanamido]-butanoyl]-N-[(1S,2R)-2-[2-[2-(4-[[(1r,3r)-3-(3-chloro-4-cyanophenoxy)-2,2,4,4-tetramethylcyclobutyl]carbamoyl]phenoxy)ethoxy]ethoxy]-2,3-dihydro-1H-inden-1-yl]pyrrolidine-2-carboxamide]: the Dmax at 1 µM was in the range of 0 to 30%.
`CN[C@@H](C)C(=O)N[C@H](C(=O)N1CCC[C@H]1C(=O)N[C@H]1c2ccccc2C[C@H]1OCCOCCOCCOCCOCCOc1ccc(C(=O)NC2C(C)(C)C(Oc3ccc(C#N)c(Cl)c3)C2(C)C)cc1)C(C)(C)C` (stereo partly drawn) [Example 1, 1-[3,3-dimethyl-(2S)-2-[(2S)-2-(methylamino)propanamido]butanoyl]-N-[(1S,2R)-2-[[1-(4-[[(1r,3r)-3-(3-chloro-4-cyanophenoxy)-2,2,4,4-tetramethylcyclobutyl]carbamoyl]phenyl)-1,4,7,10,13-pentaoxapentadecan-15-yl]oxy]-2,3-dihydro-1H-inden-1-yl]pyrrolidine-2-carboxamide]: the Dmax at 1 µM lay within 30 to 60%.
For the compound `CN[C@@H](C)C(=O)N[C@H](C(=O)N1CCC[C@H]1c1nc(-c2ccc(OCCOCCOCCOCCNc3ccc(C(=O)N[C@H]4C(C)(C)[C@H](Oc5ccc(C#N)c(Cl)c5)C4(C)C)cc3)c3ccccc23)cs1)C1CCCCC1` [Example 31, 4-[1-(4-[2-[(2S)-1-[(2S)-2-cyclohexyl-2-[(2S)-2-(methylamino)propanamido]acetyl]pyrrolidin-2-yl]-1,3-thiazol-4-yl]naphthalen-1-yl)-1,4,7,10-tetraoxa-13-azatridecan-13-yl]-N-[(1r,3r)-3-(3-chloro-4-cyanophenoxy)-2,2,4,4-tetramethylcyclobutyl]benzamide], the Dmax at 1 µM was in the range of 0 to 30%.
On the same count and under the same terms, the value for `CN[C@@H](C)C(=O)N[C@H](C(=O)N1CCC[C@H]1C(=O)N[C@H]1c2ccccc2C[C@H]1OCCOCCOc1ccc(N2C(=S)N(c3ccc(C#N)c(C(F)(F)F)c3)C(=O)C2(C)C)cc1)C(C)(C)C` [Example 35, (S)—N-((1S,2R)-2-(2-(2-(4-(3-(4-cyano-3-(trifluoromethyl)-phenyl)-5,5-dimethyl-4-oxo-2-thioxoimidazolidin-1-yl)phenoxy)ethoxy)ethoxy)-2,3-dihydro-1H-inden-1-yl)-1-((S)-3,3-dimethyl-2-((S)-2-(methylamino)propanamido)-butanoyl)pyrrolidine-2-carboxamide] was 0 to 30%.
Still for that read-out and setting: the same measure for `CN[C@@H](C)C(=O)N[C@H](C(=O)N1CCC[C@H]1C(=O)N[C@H]1c2ccccc2C[C@H]1OCCOCCOCCOCCOc1ccc(N2C(=S)N(c3ccc(C#N)c(C(F)(F)F)c3)C(=O)C2(C)C)cc1)C(C)(C)C` [Example 37]: 0 to 30%; for `CN[C@@H](C)C(=O)N[C@H](C(=O)N1CCC[C@H]1C(=O)N[C@H]1c2ccccc2C[C@H]1OCCOCCOCCOc1ccc(N2C(=S)N(c3ccc(C#N)c(C(F)(F)F)c3)C(=O)C2(C)C)cc1)C(C)(C)C` [Example 36, (2S)—N-[2-(2-[2-[2-(4-[3-[4-cyano-3-(trifluoromethyl)phenyl]-5,5-dimethyl-4-oxo-2-sulfanylideneimidazolidin-1-yl]phenoxy)ethoxy]ethoxy]ethoxy)-2,3-dihydro-1H-inden-1-yl]-1-[(2S)-3,3-dimethyl-2-[(2S)-2-(methylamino)propanamido]-butanoyl]pyrrolidine-2-carboxamide]: 0 to 30%; for `CN[C@@H](C)C(=O)N[C@H](C(=O)N1CC[C@@H]2CCN(CCc3ccc(OCCOCCOCCOCCNc4ccc(C(=O)N[C@H]5C(C)(C)[C@H](Oc6ccc(C#N)c(Cl)c6)C5(C)C)cc4)cc3)C[C@@H]21)C1CCCCC1` (racemic) [Example 33, N-((1r,3r)-3-(3-chloro-4-cyanophenoxy)-2,2,4,4-tetramethylcyclobutyl)-4-(2-(2-(2-(2-(4-(2-(1-((S)-2-cyclohexyl-2-((S)-2-(methylamino)propanamido)acetyl)-octahydropyrrolo[2,3-c]pyridin-6-yl)ethyl)phenoxy)ethoxy)ethoxy)ethoxy)ethylamino)benzamide]: 30 to 60%.

Still in this experiment, the particulars now being: @ 1 μM.
With `CN[C@@H](C)C(=O)N[C@H](C(=O)N1CCC[C@H]1C(=O)N[C@H]1c2ccccc2C[C@H]1OCCOCCOCCOc1ccc(N2C(=S)N(c3ccc(C#N)c(C(F)(F)F)c3)C(=O)C2(C)C)cc1)C(C)(C)C` [drawing 255, (2S)—N-[(1S,2R)-2-(2-{2-[2-(4-{3-[4-cyano-3-(trifluoromethyl)phenyl]-5,5-dimethyl-4-oxo-2-sulfanylideneimidazolidin-1-yl}phenoxy)ethoxy]ethoxy}ethoxy)-2,3-dihydro-1H-inden-1-yl]-1-[(2 S)-3,3-dimethyl-2-[(2S)-2-(methylamino)propanamido]butanoyl]pyrrolidine-2-carboxamide], the “Androgen receptor (AR) degradation in VCaP cells” value is on record as 9%.
On the same count and under the same terms, the same measure for `CN[C@@H](C)C(=O)N[C@H](C(=O)N1CCC[C@H]1C(=O)N[C@H]1c2ccccc2C[C@H]1OCCOCCOCCOCCOc1ccc(N2C(=S)N(c3ccc(C#N)c(C(F)(F)F)c3)C(=O)C2(C)C)cc1)C(C)(C)C` [drawing 256, (2S)—N-[(1S,2R)-2-{[1-(4-{3-[4-cyano-3-(trifluoromethyl)phenyl]-5,5-dimethyl-4-oxo-2-sulfanylideneimidazolidin-1-yl}phenyl)-1,4,7,10-tetraoxadodecan-12-yl]oxy}-2,3-dihydro-1H-inden-1-yl]-1-[(2S)-3,3-dimethyl-2-[(2S)-2-(methylamino)propanamido]butanoyl]pyrrolidine-2-carboxamide]: 9%; for `CN[C@@H](C)C(=O)N[C@H](C(=O)N1CCC[C@H]1C(=O)N[C@H]1c2ccccc2C[C@H]1OCCOCCOCCOc1ccc(C(=O)N[C@H]2C(C)(C)[C@H](Oc3ccc(C#N)c(Cl)c3)C2(C)C)cc1)C(C)(C)C` [(2S)-1-[(2S)-3,3-dimethyl-2-[(2S)-2-(methylamino)propanamido]butanoyl]-N-[(1S,2R)-2-(2-{2-[2-(4-{[(1r,3r)-3-(3-chloro-4-cyanophenoxy)-2,2,4,4-tetramethylcyclobutyl]carbamoyl}phenoxy)ethoxy]ethoxy}ethoxy)-2,3-dihydro-1H-inden-1-yl]pyrrolidine-2-carboxamide]: 18%; for `CN[C@@H](C)C(=O)N[C@H](C(=O)N1CCC[C@H]1C(=O)N[C@H]1c2ccccc2C[C@H]1OCCOCCOCCOCCOc1ccc(C(=O)N[C@H]2C(C)(C)[C@H](Oc3ccc(C#N)c(Cl)c3)C2(C)C)cc1)C(C)(C)C` [(2S)-1-[(2S)-3,3-dimethyl-2-[(2S)-2-(methylamino)propanamido]butanoyl]-N-[(1S,2R)-2-{[1-(4-1{[(1r,3r)-3-(3-chloro-4-cyanophenoxy)-2,2,4,4-tetramethylcyclobutyl]carbamoyl}phenyl)-1,4,7,10-tetraoxadodecan-12-yl]oxy}-2,3-dihydro-1H-inden-1-yl]pyrrolidine-2-carboxamide]: 33%.
On to `CN[C@@H](C)C(=O)N[C@H](C(=O)N1CCC[C@H]1C(=O)N[C@H]1c2ccccc2C[C@H]1OCCOCCOCCOCCOCCOc1ccc(C(=O)N[C@H]2C(C)(C)[C@H](Oc3ccc(C#N)c(Cl)c3)C2(C)C)cc1)C(C)(C)C` [(2S)-1-[(2S)-3,3-dimethyl-2-[(2S)-2-(methylamino)propanamido]butanoyl]-N-[(1S,2R)-2-{[1-(4-1{[(1r,3r)-3-(3-chloro-4-cyanophenoxy)-2,2,4,4-tetramethylcyclobutyl]carbamoyl}phenyl)-1,4,7,10,13-pentaoxapentadecan-15-yl]oxy}-2,3-dihydro-1H-inden-1-yl]pyrrolidine-2-carboxamide], for which the “Androgen receptor (AR) degradation in VCaP cells” value came out at 38%.

For the origin of these results see patent US20220162163A1, “ALANINE-BASED MODULATORS OF PROTEOLYSIS AND ASSOCIATED METHODS OF USE” (Arvinas Operations, Inc., priority 2015, published 2022).
